{"source": "patent US8609067B2", "about": "“Method of measuring propulsion in lymphatic structures” (Board of Regents of the University of Texas System, priority 2006, dated 2013)", "tested_on": "swine hindlimb vessel", "experiment": "Staining of lymph vessels with HA-NIR molecule", "type": "in vivo", "protocol": "Four, two-month old, 60 lb white Yorkshire swine (K Bar Livestock, HC 69 Box 270 Sabinal, Tex.) were imaged using protocols which were approved by the Baylor College of Medicine Institutional Animal Care and Use Committee. The animals were anesthetized, intubated, and maintained with isoflurane. Animal body temperature was maintained at 100° F. using a warming blanket. At the end of the procedure, the animals were euthanized and lymph nodes resected with fluorescence guidance.\nContinuous-wave optical imaging of the fluorescent NIR dyes was performed with a custom built intensified charged-coupled device (CCD). Reynolds J S, Troy T L, and Sevick-Muraca E M. Multipixel techniques for frequency-domain photon migration imaging. Biotechnol Prog 13: 669-680, 1997, incorporated herein by reference in its entirety for all purposes. Briefly, the device had three principal components: 1) a NIR-sensitive image intensifier (model FS9910C ITT Night Vision, Roanoke, Va.); 2) a 16-bit dynamic range, frame transfer CCD camera (Roper Scientific, Tucson, Ariz.); and 3) a 785-nm laser diode (Thorlabs) used to provide the excitation light for activating ICG and hyaluronan-NIR. The 785-nm laser diode beam was expanded by using a planoconvex lens and a holographic optical diffuser such that approximately 0.08 m^2 of the swine's body was illuminated. A 785-nm holographic notch band rejection filter (model HNPF-785.0-2.0, Kaiser Optical Systems, Ann Arbor, Mich.) and an 830-nm image quality bandpass filter (model 830.0-2.0, Andover, Salem, N.H.) were placed before the 28-mm Nikkor lens (Nikon) to selectively reject the excitation light and pass the emitted 830-nm wavelength. A total of 400 to 1,000 images with 512×512 resolution and 200 ms exposure time were acquired enabling near-real time visualization of ICG trafficking. For image registration, white light images were acquired by replacing the holographic and bandpass filters with a neutral density filter and illuminating the surface of the swine with a low-power lamp. […]", "data": [{"smiles": "CC1(C)C(/C=C/C=C/C=C/C=C2\\N(CCCCS(=O)(=O)O)c3ccc4ccccc4c3C2(C)C)=[N+](CCCCS(=O)(=O)[O-])c2ccc3ccccc3c21", "note": "[ICG, indocyanine green]", "values": [{"measurement": "normalized fluorescent intensity in ROI as a function of time", "setting": "image acquisition 6 min, swine leg lymph vessel", "result": "fluctuation and net reduction of intensity"}, {"measurement": "propulsion of packets", "setting": "swine hindlimb vessel, 64 μM HA-NIR, 32 μM ICG", "result": "observed"}, {"measurement": "fluorescence intensity along the length of the vessel and with time", "setting": "three-dimensional plots, swine lymph vessels", "result": "varies with time and length along the vessel"}]}]}
